Experimental data from patent publication US5495032A, “Process for producing 7-(substituted)-8-(substituted-9-[(substituted glycyl)amido]-6-demethyl-6-deoxytetracyclines” (priority 1994, dated 1996).
In brackets after ≈: the same amount, converted by molar mass. Counter-ions that a name gives are not always drawn. Like-named read-outs stand apart in the source and are kept apart here.

What was measured:
Format in all cases: cell-based
E. coli UBMS 88-1 Tet B = assay: microbe, parasite or virus in culture; conditions: Escherichia coli, UBMS881TETB, 18 h, 18 hours at 35° C.
[1] = system: E. coli MC 4100 Tet sens.; assay: MIC, agar dilution method; conditions: Escherichia coli, 18 hours at 35° C., read-out: MIC
E. coli PRP1 Tet A = assay: microbe, parasite or virus in culture; conditions: Escherichia coli, PRP1TETA, 18 h, 18 hours at 35° C.
[2] = system: E. coli MC 4100 TNIOC Tet B; assay: microbe, parasite or virus in culture; conditions: Escherichia coli, 18 h, 18 hours at 35° C.
E. coli J3272 Tet C = assay: microbe, parasite or virus in culture; conditions: Escherichia coli, J3272TETC, 18 h
E. coli UBMS 89-1 Tet M = assay: microbe, parasite or virus in culture; conditions: Escherichia coli, UBMS891TETM, 18 h, 18 hours at 35° C.
[3] = system: E. coli UBMS 89-2 Tet sens; assay: MIC, agar dilution method; conditions: Escherichia coli, UBMS892TETSENS, 18 h, 18 hours at 35° C., read-out: MIC
E. coli J2175 = assay: MIC, agar dilution method; conditions: Escherichia coli, 18 hours at 35° C., read-out: MIC
E. coli BAJ9003 IMP MUT = assay: microbe, parasite or virus in culture; conditions: Escherichia coli, BAJ9003IMPMUT, 18 h, 18 hours at 35° C.
E. coli UBMS 90-4 Tet M = assay: microbe, parasite or virus in culture; conditions: Escherichia coli, UBMS904TETM, 18 h, 18 hours at 35° C.
E. coli UBMS 90-5 sens = assay: MIC, agar dilution method; conditions: Escherichia coli, UBMS905SENS, 18 hours at 35° C., read-out: MIC
E. coli #311 (MP) = assay: MIC, agar dilution method; conditions: Escherichia coli, 18 hours at 35° C., read-out: MIC
E. coli ATCC 25922 = assay: MIC, agar dilution method; conditions: Escherichia coli, ATCC25922, 18 hours at 35° C., read-out: MIC
E. coli J3272 Tet D = assay: microbe, parasite or virus in culture; conditions: Escherichia coli, J3272TETD, 18 h
S. mariescens FPOR 8733 = assay: MIC, agar dilution method; conditions: 18 h, 18 hours at 35° C.
[4] = system: X. maltophilia NEMC 87210; assay: MIC, agar dilution method; conditions: Stenotrophomonas maltophilia
[5] = system: Ps. acruginosa ATCC 27853; assay: MIC, agar dilution method
S. aureus NEMC 8769 = assay: MIC, agar dilution method; conditions: Staphylococcus aureus, NEMC8769; S. aureus NEMC 8769; 18 hours at 35° C.; read-out: MIC
S. aureus UBMS 88-4 = assay: MIC, agar dilution method; conditions: Staphylococcus aureus, UBMS884, 18 hours at 35° C., read-out: MIC
[6] = system: S. aureus UBMS 88-5 Tet M; assay: microbe, parasite or virus in culture; conditions: Staphylococcus aureus, UBMS885TETM, 18 h
[7] = system: S. aureus UBMS 88-7 Tet K; assay: microbe, parasite or virus in culture; conditions: Staphylococcus aureus, UBMS887TETK, 18 h, 18 hours at 35° C.
[8] = system: S. aureus UBMS 90-1 Tet M; assay: microbe, parasite or virus in culture; conditions: Staphylococcus aureus, UBMS901TETM, 18 h, 18 hours at 35° C.
[9] = system: S. aureus UBMS 90-2 Tet M; assay: microbe, parasite or virus in culture; conditions: Staphylococcus aureus, UBMS902TETM, 18 h, 18 hours at 35° C.
S. aureus IVES 2943 = assay: MIC, agar dilution method; conditions: Staphylococcus aureus, IVES2943; S. aureus IVES 2943; 18 hours at 35° C.; read-out: MIC
S. aureus ROSE (MP) = assay: MIC, agar dilution method; conditions: Staphylococcus aureus, 18 hours at 35° C., read-out: MIC
S. aureus SMITH (MP) = assay: MIC, agar dilution method; conditions: Staphylococcus aureus, 18 hours at 35° C., read-out: MIC
S. aureus IVES 1 983 = assay: MIC, agar dilution method; conditions: Staphylococcus aureus, IVES1983; S. aureus IVES 1 983; 18 hours at 35° C.; read-out: MIC
S. aureus ATCC 29213 = assay: MIC, agar dilution method; conditions: Staphylococcus aureus, ATCC29213, 18 hours at 35° C., read-out: MIC
[10] = system: S. hemolyticus AVHAH 88-3; assay: MIC, agar dilution method; conditions: Streptococcus pyogenes
Enterococcus 12201 = assay: MIC, agar dilution method; conditions: 18 hours at 35° C., read-out: MIC
E. faecalis ATCC 29212 = assay: MIC, agar dilution method; conditions: Enterococcus faecalis
[11] = AVHAH883, 18 hours at 35° C., read-out: MIC
[12] = NEMC87210, 18 h, 18 hours at 35° C.

| SMILES | MIC (E. coli UBMS 88-1 Tet B) [µg/mL] | MIC [1] [µg/mL] | MIC (E. coli PRP1 Tet A) [µg/mL] | MIC [2] [µg/mL] | MIC (E. coli J3272 Tet C) [µg/mL] | MIC (E. coli UBMS 89-1 Tet M) [µg/mL] | MIC [3] [µg/mL] | MIC (E. coli J2175) [µg/mL] | MIC (E. coli BAJ9003 IMP MUT) [µg/mL] | MIC (E. coli UBMS 90-4 Tet M) [µg/mL] | MIC (E. coli UBMS 90-5 sens) [µg/mL] | MIC (E. coli #311 (MP)) [µg/mL] | MIC (E. coli ATCC 25922) [µg/mL] | MIC (E. coli J3272 Tet D) [µg/mL] | MIC (S. mariescens FPOR 8733) [µg/mL] | MIC (S. aureus NEMC 8769) [µg/mL] | MIC (S. aureus UBMS 88-4) [µg/mL] | MIC [7] [µg/mL] | MIC [8] [µg/mL] | MIC (S. aureus ROSE (MP)) [µg/mL] | other results |
| --- | --- | --- | --- | --- | --- | --- | --- | --- | --- | --- | --- | --- | --- | --- | --- | --- | --- | --- | --- | --- | --- |
| CN(C)[C@@H]1C(O)=C(C(N)=O)C(=O)[C@@]2(O)C(O)=C3C(=O)c4c(cc(Cl)c(NC(=O)CCl)c4O)CC3CC12 (stereo partly drawn) [K, [4S-(4α,12aα)]-9-[(Chloroacetyl)amino]-8-chloro-4-(dimethylamino)-1,4,4a,5,5a ,6,11,12a-octahydro-3,10,12,12a-tetrahydroxy-1,11-dioxo-2-naphthacenecarboxamide hydrochloride] | > 32 | 8 | > 32 | > 32 | > 32 | 8 | > 32 | > 32 | 1 | > 32 | > 32 | 16 | 16 | > 32 | > 32 | 0.5 | 0.5 | 4 | 1 | 4 | MIC ([4]; NEMC87210, 18 hours at 35° C., read-out: MIC): 8 µg/mL; MIC ([5]; Ps. acruginosa ATCC 27853, 18 hours at 35° C., read-out: MIC): > 32 µg/mL; MIC ([6]; S. aureus UBMS 88-5 Tet M, 18 hours at 35° C.): 1 µg/mL; MIC [9]: 0.5 µg/mL; MIC (S. aureus IVES 2943): 4 µg/mL; MIC (S. aureus SMITH (MP)): 0.5 µg/mL; MIC (S. aureus IVES 1 983): 4 µg/mL; MIC (S. aureus ATCC 29213): 0.5 µg/mL; MIC [10, 11]: 4 µg/mL; MIC (Enterococcus 12201): 2 µg/mL; MIC (E. faecalis ATCC 29212; ATCC29212, 18 hours at 35° C., read-out: MIC): 0.5 µg/mL |
| CN(C)c1ccc(O)c2c1C[C@H]1C[C@H]3[C@H](N(C)C)C(O)=C(C(N)=O)C(=O)[C@@]3(O)C(O)=C1C2=O [L, Minocycline, reference compound] |  |  |  |  |  |  |  |  |  | > 32 |  |  |  |  |  |  |  | 0.25 (≈ 0.546 µM) | 8 (≈ 17.5 µM) | 1 (≈ 2.19 µM) | MIC [4, 12]: 0.25 µg/mL (≈ 0.546 µM); MIC [6]: 8 µg/mL (≈ 17.5 µM); MIC ([10]; AVHAH883, 18 h, 18 hours at 35° C.): 0.25 µg/mL (≈ 0.546 µM) |
| CCCCNCC(=O)Nc1c(Cl)cc2c(c1O)C(=O)C1=C(O)[C@]3(O)C(=O)C(C(N)=O)=C(O)[C@@H](N(C)C)C3CC1C2 (stereo partly drawn) [D, [4S-(4α,12aα)]-9-[[(Butylamino)acetyl]amino]-8-chloro-4-(dimethylamino) -1,4,4a,5,5a,6,11,12a-octahydro-3,10,12,12a-tetrahydroxy-1,11-dioxo-2-naphthacenecarboxamide dihydrochloride] | 2 | 0.25 | 4 | 1 | 2 | 0.5 | 2 | 1 | 0.25 | 1 | 1 | 1 | 1 | 1 | 16 | 0.5 | 0.5 | 8 | 2 | 16 | MIC [4, 12]: 4 µg/mL; MIC ([5]; 18 h): > 32 µg/mL; MIC [6]: 1 µg/mL; MIC [9]: 0.5 µg/mL; MIC (S. aureus IVES 2943): 16 µg/mL; MIC (S. aureus SMITH (MP)): 0.5 µg/mL; MIC (S. aureus IVES 1 983): 8 µg/mL; MIC (S. aureus ATCC 29213): 0.5 µg/mL; MIC [10, 11]: 8 µg/mL; MIC (Enterococcus 12201): 0.5 µg/mL; MIC (E. faecalis ATCC 29212; ATCC29212, 18 h, 18 hours at 35° C.): 0.25 µg/mL |
